Laboratory results published in US5348977A, “Cobalt complexes as anti-cancer agents” (Warner Lambert Company, priority 1991, dated 1994).

Assays:
[1] = Square wave voltammetry, peak potential of cathodic wave; format: physicochemical; conditions: vs NHE, platinum disc electrode, 0.15 M (n-Bu4 N)ClO4 in CH2 Cl2, ferrocene internal reference
Description: E1/2 Peak potentials (vs NHE) of cathodic wave, determined by square wave voltammetry at a platinum disc electrode in 0.15 M (n-Bu4 N)ClO4 in CH2 Cl2 with ferrocene as an internal reference.

AA8 cells [2] = test: Growth inhibition, AA8 cells with lethally-irradiated AA8 feeder cells, aerobic or hypoxic 18 h (Table 3); format: cell-based, hamster; conditions: for IC50: AA8, aerobic, 18 h exposure, read-out: IC50 (air) AA8; for HF(air): IC50 (AA8)/IC50 (UV4), aerobic, 1080 min; for IC50 (air)/IC50 (N2) AA8: aerobic IC50 /hypoxic IC50, AA8, 18 h
Protocol: (§1) IC50 Growth inhibition studies were performed as described in detail elsewhere (W. R. Wilson, R. F. Anderson and W. A. Denny. J. Med. Chem., 1989, 32, 23; G. J. Finlay, B. C. Baguley and W. R. Wilson. Anal. Biochem., 1984, 139, 172.), using 200 viable AA8 or 300 viable UV4 cells plus 5000 lethally-irradiated AA8 feeder cells per well in 96-well tissue culture dishes. AA8 and UV4 cells were maintained in logarithmic-phase growth in […] tissue culture flasks with subculture twice weekly by trypsinization. The growth medium was antibiotic-free Alpha MEM with 10% v/v heat-inactivated (56° C., 40 min) fetal calf serum. Doubling times were approximately 14h for AA8 and […] cells.
(§2) air/N2 ratio Ratio of IC50 values after exposure as detailed above under either aerobic (air) or hypoxic (N2) conditions (=aerobic IC50 /hypoxic IC50).
(§3) HF Ratio of IC50 values for a compound after exposure as detailed above against AA8 and UV4 cell lines (=IC50 (AA8)/IC50 (UV4)).

UV4 cells [3] = test: Growth inhibition, UV4 cells with lethally-irradiated AA8 feeder cells, aerobic or hypoxic 18 h (Table 3); format: cell-based; conditions: aerobic IC50 /hypoxic IC50, UV4, 18 h
Protocol: as §1, §2, §3

EMT6 cells = test: Growth inhibition, EMT6 cells, aerobic 18 h (Table 2); format: cell-based; conditions: 18 h exposure, 6 determinations
Protocol: (§4) ([Co(Macac)2 (DCE)]ClO4) was prepared as described in Example E. Growth inhibition studies were performed as described in detail by W. R. Wilson, R. F. Anderson and W. A. Denny in J. Med. Chem., 1989 32, 23 and by G. J. Finlay, B. C. Baguley and W. R. Wilson in Anal. Biochem., 1984, 139, 172, herein specifically incorporated by reference. 200 AA8 cells in 96 well tissue culture dishes, 300 UV4 cells in 96 well tissue culture dishes, 300 UV5 cells in 96 well tissue culture dishes, 50 EMT6 cells in 96 well tissue culture dishes, 200 SCC7 cells in 96 well tissue culture dishes, 1500 FME cells in 96 well tissue culture dishes and 500 HCT-8 cells in 96 well tissue culture dishes were prepared. The cells were maintained in logarithmic-phase growth in 25 cm tissue culture flasks with subculture twice weekly by trypsinization. The growth medium was antibiotic-free Alpha MEM with 10% v/v heat-inactivated (56° C., 40 min.) fetal calf serum. Doubling times were approximately 14 hours for AAS, 16 hours for UV4, 16 hours for UV5, 10 hours for EMT6, 14 hours for SCC7, 24 hours for FME and 20 hours for HCT-8 cells. Cultures were tested for mycoplasma contamination frequently, using a cytochemical staining method (I. R. Chen, Exp. Cell Res., 1977, 104, 255). […]

UV5 cells = test: Growth inhibition, UV5 cells, aerobic 18 h (Table 2); format: cell-based; conditions: 18 h exposure, 1 determination
Protocol: as §4

HCT-8 cells = test: Growth inhibition, HCT-8 cells, aerobic 18 h (Table 2); format: cell-based; conditions: HCT-8 (human colon carcinoma), 18 h exposure, 1 determination
Protocol: as §4

AA8 cells [4] = test: Growth inhibition, AA8 cells, aerobic 18 h (Table 2); format: cell-based, hamster; conditions: 18 h exposure, 5 determinations
Protocol: as §4

FME cells = test: Growth inhibition, FME cells, aerobic 18 h (Table 2); format: cell-based, human
Protocol: as §4

SCC7 cells = test: Growth inhibition, SCC7 cells, aerobic 18 h (Table 2); format: cell-based; conditions: 18 h exposure, 1 determination
Protocol: as §4

UV4 cells [5] = test: Growth inhibition, UV4 cells, aerobic 18 h (Table 2); format: cell-based; conditions: 18 h exposure, 5 determinations
Protocol: as §4

Substance | E1/2 [1] [mV] | IC50 (AA8 cells [2]) [µM] | HF(air) (AA8 cells [2]) | IC50 (air)/IC50 (N2) AA8 (AA8 cells [2]) | IC50 (air)/IC50 (N2) UV4 (UV4 cells [3]) | IC50 (EMT6 cells) [µM] | IC50 (UV5 cells) [µM] | IC50 (HCT-8 cells) [µM] | IC50 (AA8 cells [4]) [µM] | IC50 (FME cells; FME (human breast carcinoma), aerobic, 18 h exposure, 6 determinations) [µM] | potency in human lines as compared to AA8 (FME cells; FME and HCT-8 versus AA8, aerobic) | IC50 (SCC7 cells) [µM] | IC50 (UV4 cells [5]) [µM]
[Co(Clacac)2 (BCE)]Cl [Compound 5] | -132 | 26.1 ± 2 | 12.8 ± 3.5 | 0.54 ± 0.12 | 0.92 ± 0.21 |  |  |  |  |  |  |  | 
[Co(Etacac)2 (BCE)]ClO4 [Compound 3] | -460 | 139 ± 18.3 | 4.8 ± 1.4 | 0.79 ± 0.24 | 1.77 ± 0.75 |  |  |  |  |  |  |  | 
[Co(Etacac)2 (DCE)]Cl.2H2 O [Compound 8] | -352 | 1.56 ± 0.08 | 21.2 ± 4.0 | 1.28 ± 0.23 | 2.14 ± 0.56 |  |  |  |  |  |  |  | 
[Co(Macac)2 (BCE)]ClO4 [Compound 2] | -420 | 992 | 3.25 | < 1 |  |  |  |  |  |  |  |  | 
[Co(Macac)2 (DCE)]ClO4 [Compound 7] | -307 | 2.91 ± 0.47 | 50.8 ± 3.7 | 2.81 ± 0.16 | 2.03 ± 0.47 | 1.61 ± 0.21 | 2.64 | 4.44 | 4.56 ± 0.62 | 1.3 ± 0.13 | higher potency (lower IC50) in both of the human lines as compared to AA8 | 0.31 | 0.1 ± 0.02
[Co(Pracac)2 (BCE)]ClO4 [Compound 4] | -500 | 18.5 ± 3.3 | 3.5 ± 0.7 | 0.85 ± 0.35 | 1.20 ± 0.50 |  |  |  |  |  |  |  | 
[Co(acac)2 (BCE)]ClO4 [Compound 1] | -308 | 893 ± 161 | 14.0 ± 4.3 | 0.42 ± 0.06 | 3.76 ± 1.46 |  |  |  |  |  |  |  | 
[Co(acac)2 (DCE)]ClO4 [Compound 6] | -232 | 1.75 ± 0.1 | 48.2 ± 9.0 | 1.33 ± 0.13 | 0.85 ± 0.03 |  |  |  |  |  |  |  | 
